Laboratory results as given in article PMC5342071, “A first generation inhibitor of human Greatwall kinase, enabled by structural and functional characterisation of a minimal kinase domain construct” (Oncotarget, 2016).

What was measured:
Type in all cases: biochemical
CDK2 = target: T1, CDK2 (Homo sapiens, UniProt P24941); assay: CDK2 kinase assay, Histone H1 substrate, Kinase-Glo Max; settings: for IC50: ± S.D.
T1 construct: made in house; host or cells: E. coli
Experimental: PKA, ROCK1 and CDK2 kinase assays
PKA and ROCK1 assays (Promega) were carried out according to the manufacturer’s protocols and CDK2 assays were carried out with Histone H1 as substrate (1 µg per 20 µl reaction) according to our Kinase-Glo Max assay. CDK2 was expressed and purified from E. coli as previously described (10). […]
(§1) Data were normalised against the AllStars negative control siRNA treated cells and values obtained from 3 – 5 biological replicates were reported as the mean ± 1 S.D.

PKA = target: T2, PKA (Homo sapiens, UniProt P17612); assay: PKA kinase assay (Promega); settings: for IC50: ± S.D.
T2 construct: purchased Promega
Experimental: (§2) hGWLFL, 100 µl of lysate was diluted 5-fold with IP buffer and combined with 3 µl anti-Flag M2 magnetic Dynabeads [Sigma-Aldrich] overnight at 4 °C. After sequential washes with IP buffer, 1:1 mix of IP and kinase assay buffers and a final wash in kinase assay buffer, the beads were then used in the kinase assay. The reaction was stopped by adding SDS loading buffer and analysed by western blot: p-ENSA and GWL levels were detected using the anti-phospho(Ser67)-ENSA and anti-MASTL(GWL, Prestige) antibodies. Activity was measured as the p-ENSA/GWL ratio and % kinase activity was normalised to the DMSO control. All kinases assays were repeated thrice per assay condition and each point on the concentration-dependent response curves represents the mean ± 1 S.D.
(§3) PKA, ROCK1 and CDK2 kinase assays […]
as §1

ROCK1 = target: T3, ROCK1 (Homo sapiens, UniProt Q13464); assay: ROCK1 kinase assay (Promega); settings: for IC50: ± S.D.
T3 construct: purchased Promega
Experimental: as §2, §3, §1

hGWL-KinDom = target: T4, hGWL-KinDom (Homo sapiens, UniProt Q96GX5); assay: Inhibitor screen of pooled library with hGWL-KinDom (Kinase-Glo Max); settings: for inhibition at 10 µM: 10 μM screening concentration, ATP concentration = 45 μM; for Rank in inhibitor screen: rank by potency in the screen
T4 construct: that encoded amino acids (aa) 1-194 + ‘RTFC’ + 740-879 of hGWL; GST (rhinovirus 3C-protease cleavable) (N, cleaved yes); made in house; host or cells: E. coli Rosetta2(DE3)
Experimental: Two small-molecule compound libraries, enriched with pharmacophores known to interact with the ATP-binding site of protein kinases, were screened as a pooled library in a Kinase-GloMax luminescence-kinase assay. page 4: […] Dynabeads [Sigma-Aldrich] overnight at 4 °C. After sequential washes with IP buffer, 1:1 mix of IP and kinase assay buffers and a final wash in kinase assay buffer, the beads were then used in the kinase assay. The reaction was stopped by adding SDS loading buffer and analysed by western blot: p-ENSA and GWL levels were detected using the anti-phospho([…] and […], Prestige) antibodies. Activity was measured as the […] ratio and % kinase activity was normalised to the DMSO control. All kinases assays were repeated thrice per assay condition and each point on the concentration-dependent response curves represents the mean ± 1 S.D. PKA, ROCK1 and CDK2 kinase assays PKA and ROCK1 assays (Promega) were carried out according to the manufacturer's protocols and CDK2 assays were carried out with Histone H1 as substrate (1 µg per 20 µl reaction) according to our Kinase-Glo Max assay. CDK2 was expressed and purified from E. coli as previously described (10). Inhibitor Screens with hGWL-KinDom Two small-molecule compound libraries, enriched with pharmacophores known to interact with the ATP- binding site of protein kinases, were kindly provided by GlaxoSmithKline and Roche. We used this pooled library (582 compounds, 10 µM screening concentrations) in a Kinase-Glo Max luminescence kinase assay (11, 12) as part of a two-point screen against hGWL-KinDom kinase activity, using ATP at fixed concentrations of […] With STU as positive control at a […] 4A,B). […] rate = 5.8%; Supplementary Figure 4A). Molecular Docking - AutoDock AT13148 and GKI-1/2 were docked into the ATP-binding site of the hGWL-KinDom crystal structure (where the disordered C-helix was homology-modelled) using AutoDock 4.2.6. PDB format files for the ligand and kinase domain were pre-processed using AutoDock Tools 1.5.6 as described in Mohamed, et al. (13). (Figure 4 and Supplementary Figure 6A,B). Immunofluorescence and Time-lapse video microscopy 2.5 X 105 HeLa cells were plated onto glass coverslips in a 6-well plate, or 4-well µ-slides [Ibidi GmbH] were seeded with 5 X 104 cells and then transfected with Qiagen AllStars negative control or Hs_MASTL_6 siRNAs (14) using Lipofectamine RNAiMax [ThermoFisher Scientific]. Media was exchanged with fresh media the next day. 48 hours after siRNA treatment, only cells to be used for immunofluorescence (IF) were treated with nocodazole (200 ng/mL) and DMSO or GKI-1 at the indicated concentration. For IF, cells were fixed, stained with primary mouse anti-GWL and rabbit anti-p-ENSA antibodies, secondary Alexa Fluor 647-conjugated anti- rabbit and Alexa Fluor 488-conjugated anti-mouse antibodies, DAPI and mounted onto glass microscope slides using Diamond Antifade Mountant [Molecular Probes, ThermoFisher Scientific]. Quantitation of IF images was performed using the […]-Content Screening Station [Olympus Life Science] which acquired 220, 40x images per cover slip. Data were normalised against the AllStars negative control siRNA treated cells and values obtained from three biological replicates were reported as the mean ± 1 S.D. To assist with selecting mitotic cells, ScanR imaging software was utilised to gate for mitotic cells using the circularity factor and total DAPI parameters. To produce time-lapse videos, after 48 hours and cell treatment with DMSO or compound (cells were treated with GKI-1 for 4-h before image acquisition) cells plated in 4-well µ-slides were imaged every 5 minutes for 8.5 hours on an Olympus IX73 microscope, using a 40 x 0.95NA air objective, and recorded on an Orca-Flash 4.0 CMOS camera [Hamatsu]. The computer program Fiji (http://www.fiji.sc/Fiji) was used to generate videos from image sequence TIF files. Data were normalised against the AllStars negative control siRNA treated cells and […]

T3 sequence (Q13464 whole entry): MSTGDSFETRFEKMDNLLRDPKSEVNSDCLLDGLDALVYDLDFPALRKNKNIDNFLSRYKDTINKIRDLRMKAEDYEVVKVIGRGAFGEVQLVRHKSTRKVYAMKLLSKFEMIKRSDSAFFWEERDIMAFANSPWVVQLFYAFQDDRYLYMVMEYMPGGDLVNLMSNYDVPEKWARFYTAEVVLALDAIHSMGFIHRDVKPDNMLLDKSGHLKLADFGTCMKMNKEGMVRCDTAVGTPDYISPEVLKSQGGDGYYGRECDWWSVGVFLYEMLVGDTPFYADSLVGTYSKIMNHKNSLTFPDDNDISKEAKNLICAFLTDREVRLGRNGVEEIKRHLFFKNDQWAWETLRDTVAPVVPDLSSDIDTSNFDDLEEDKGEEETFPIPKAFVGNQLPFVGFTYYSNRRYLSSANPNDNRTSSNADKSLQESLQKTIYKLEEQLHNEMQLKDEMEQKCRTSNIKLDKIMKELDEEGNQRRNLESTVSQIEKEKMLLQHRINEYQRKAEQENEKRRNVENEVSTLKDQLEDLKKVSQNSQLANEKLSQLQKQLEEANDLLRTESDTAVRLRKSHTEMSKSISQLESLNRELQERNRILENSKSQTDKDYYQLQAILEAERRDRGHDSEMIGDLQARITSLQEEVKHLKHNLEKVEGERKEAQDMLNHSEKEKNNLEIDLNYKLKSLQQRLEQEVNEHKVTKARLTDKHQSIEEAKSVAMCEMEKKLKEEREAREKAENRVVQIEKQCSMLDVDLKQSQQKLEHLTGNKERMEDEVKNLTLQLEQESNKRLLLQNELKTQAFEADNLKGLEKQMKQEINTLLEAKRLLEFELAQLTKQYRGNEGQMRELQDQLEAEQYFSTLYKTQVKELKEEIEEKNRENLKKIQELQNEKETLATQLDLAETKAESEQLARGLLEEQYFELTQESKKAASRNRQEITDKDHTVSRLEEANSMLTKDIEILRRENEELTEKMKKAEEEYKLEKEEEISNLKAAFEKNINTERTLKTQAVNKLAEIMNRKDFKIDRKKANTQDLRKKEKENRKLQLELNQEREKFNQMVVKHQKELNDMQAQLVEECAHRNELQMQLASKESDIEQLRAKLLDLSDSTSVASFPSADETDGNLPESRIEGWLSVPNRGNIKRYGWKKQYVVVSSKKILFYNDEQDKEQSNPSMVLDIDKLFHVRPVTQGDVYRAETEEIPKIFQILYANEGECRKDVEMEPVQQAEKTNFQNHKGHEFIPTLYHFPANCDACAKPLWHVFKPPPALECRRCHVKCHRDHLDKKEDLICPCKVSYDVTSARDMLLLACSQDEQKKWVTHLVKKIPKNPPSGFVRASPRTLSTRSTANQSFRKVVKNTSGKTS
T4 sequence (Q96GX5 with tags, fused parts or gaps limits assumed): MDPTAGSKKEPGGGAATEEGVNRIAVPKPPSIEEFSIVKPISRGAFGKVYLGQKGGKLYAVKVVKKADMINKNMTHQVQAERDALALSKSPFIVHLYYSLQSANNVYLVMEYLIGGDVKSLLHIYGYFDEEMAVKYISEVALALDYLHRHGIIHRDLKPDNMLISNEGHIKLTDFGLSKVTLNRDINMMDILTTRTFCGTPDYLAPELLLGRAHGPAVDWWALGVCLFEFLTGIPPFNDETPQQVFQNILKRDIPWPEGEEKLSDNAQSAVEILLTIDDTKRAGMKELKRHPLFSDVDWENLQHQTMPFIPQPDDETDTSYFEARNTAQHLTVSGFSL

Row | inhibitory activity towards CDK2 (CDK2; concentrations up to 100 μM) | IC50 (CDK2) [µM] | selectivity for hGWL^FL over PKA (PKA) | IC50 (PKA) [µM] | selectivity for hGWL^FL over ROCK1 (ROCK1) [fold] | IC50 (ROCK1) [µM] | inhibition at 10 µM (hGWL-KinDom) [%] | Rank in inhibitor screen (hGWL-KinDom) | Structure (SMILES)
1 | no observable inhibitory activity | > 100 | greater than 8 fold | > 40 | 2 | 11.3 ± 3.4 |  |  | Clc1ccc(Nc2cccc(-c3cn[nH]c3)c2)cc1 [GKI-1, N-(4-chlorophenyl)-3-(1H-pyrazol-4-yl)aniline]
2 |  |  |  |  |  |  | 39.6 | 3 | CN(C)CC#Cc1cccc(C(=O)c2cnn(-c3ccc(F)cc3)c2N)c1 [GRI-3]
3 |  | 0.089 ± 0.003 |  | > 100 |  | 21.6 ± 5.3 | 30.1 | 8 | CCN(CC)Cc1ccc(Nc2nccc(-c3cnn4ncccc34)n2)cc1 [GRI-4]
